The record followed here is US9688760B2, “Anti-leukocyte adhesion for the mitigation of potential adverse events caused by CD3-specific binding domains” (AMGEN RESEARCH (MUNICH) GMBH, priority 2013, dated 2017).

This assay concerns recombinant human ICAM-1/VCAM-1. Put plainly: Flow chamber: Jurkat E6.1 T cell-rolling on recombinant ICAM-1/VCAM-1, semi short-term conditions. The assay is classed as cell-based. As to conditions: Jurkat E6.1 T cells, +AMG 103 10 ng/ml, t=45 min; coated at 12.5 and 10 μg/ml; control −AMG 103 640±91. The method, then:
Recombinant proteins (rhICAM-1 #ADP4-050, rhVCAM-1 #ADP5-050 or rhP-selectin #ADP3-050, R&D Systems) were dissolved in ddH2O according to the manufacturer's instructions. Prior to rolling experiments recombinant proteins were diluted in Dulbecco's PBS with Ca^2+ and Mg^2+ (#L1815, Biochrom) and coated onto a μ-slide VI^0.4 Luer ibiTreat (#80606, ibidi) over night at 4° C. Before usage slides were washed three times with Dulbecco's PBS and blocked where indicated with 20% FBS (#10270, Gibco) in PBS for 2 h at room temperature. Blocking solution was replaced by RPMI 1640 medium (#FG1215, Biochrom) without supplements. […]
For rolling experiments using Jurkat E6.1 T cells, these cells were resuspended in RPMI 1640 medium (#FG1215, Biochrom) without supplements to a final concentration of 1.5-3×10^5 cells/ml. […] Image sequences of 45 sec duration were recorded at t=40 min, 45 min, and 50 min as described in Example 2 (p. 50, 18-23).
Experiments under defined hydrodynamic flow conditions were performed by using either freshly isolated human T cells or Jurkat E6.1 T cells and μ-slide VI^0.4 Luer ibiTreat (#80606, ibidi) coated with different recombinant proteins as described above. […] T cell-interactions with recombinant proteins were recorded as described above and data was analyzed as described in detail in Example 2 (p. 50, 23-30). […]

“Blinatumomab: recombinant CD19×CD3 bispecific scFv antibody consisting of four immunoglobulin variable domains assembled into a single polypeptide chain”: the “mean T cell-rolling velocity±SD” value is recorded as 518±98 μm/sec.
